Test results taken from patent US20260199468A1, “COMPOSITIONS AND METHODS FOR TREATING CANCER USING CELL THERAPIES” (Orca Biosystems, Inc., priority 2023, published 2026).

Columns and labels:
[1] = healthy subjects, oral administration; cited from earlier work
[2] = test system: CAR T cells; test: In vitro CAR T cell cytotoxicity with tacrolimus; assay type: cell-based; settings: higher concentrations of tacrolimus, FIGS. 2-5
Method: (§1) CAR T cells used in the clinical study described in Example 1 were assessed according to standard in vitro methods; CD19 CAR expression was assessed (FIG. 2); CAR T cell cytotoxicity was assessed (FIG. 3); CD3 T cell proliferation was assessed (FIG. 4); and CAR T cell proliferation was assessed (FIG. 4).

[3] = test system: CAR T cells; test: In vitro CAR T cell proliferation with tacrolimus; assay type: cell-based; settings: higher concentrations of tacrolimus; in the presence or absence of tumor
Method: as §1

C=CC[C@@H]1/C=C(\C)C[C@H](C)C[C@H](OC)[C@H]2O[C@@](O)(C(=O)C(=O)N3CCCC[C@H]3C(=O)O[C@H](/C(C)=C/[C@@H]3CC[C@@H](O)[C@H](OC)C3)[C@H](C)[C@@H](O)CC1=O)[C@H](C)C[C@@H]2OC [tacrolimus]
absolute bioavailability [1]: 18±5%
CAR T cytotoxicity [2]: reduced CAR T cytotoxicity
CAR T cytotoxicity ([2]; listed as Tacrolimus): Reduces CAR T Cytotoxicity in a Dose-Dependent Manner
CAR T cell proliferation [3]: reduced CAR T cell proliferation
